Source: ChEMBL document CHEMBL5512667, “Discovery of Potent, Selective, and Orally Available IRE1α Inhibitors Demonstrating Comparable PD Modulation to IRE1 Knockdown in a Multiple Myeloma Model” (J Med Chem, 2024)
≈ marks a conversion by molar mass, not a printed value. Calls of active or inactive are those of the source. The calls are words filed in the database; no cut-off is given here.

What was measured:
[1] = molecular target: T1, Serine/threonine-protein kinase/endoribonuclease IRE1 (Homo sapiens, UniProt O75460); test: Inhibition of His-tagged IRE1alpha (G547 to L977 residues) (unknown origin) expressed in Sf9 cells preincubated with anti-His Europium labeled antibody for 1 hr prior to compound addition followed by tracer 236 addition and measured after 1 hr by TR-FRET assay
Target sequence in this assay (O75460 whole entry, the tested form may be a part): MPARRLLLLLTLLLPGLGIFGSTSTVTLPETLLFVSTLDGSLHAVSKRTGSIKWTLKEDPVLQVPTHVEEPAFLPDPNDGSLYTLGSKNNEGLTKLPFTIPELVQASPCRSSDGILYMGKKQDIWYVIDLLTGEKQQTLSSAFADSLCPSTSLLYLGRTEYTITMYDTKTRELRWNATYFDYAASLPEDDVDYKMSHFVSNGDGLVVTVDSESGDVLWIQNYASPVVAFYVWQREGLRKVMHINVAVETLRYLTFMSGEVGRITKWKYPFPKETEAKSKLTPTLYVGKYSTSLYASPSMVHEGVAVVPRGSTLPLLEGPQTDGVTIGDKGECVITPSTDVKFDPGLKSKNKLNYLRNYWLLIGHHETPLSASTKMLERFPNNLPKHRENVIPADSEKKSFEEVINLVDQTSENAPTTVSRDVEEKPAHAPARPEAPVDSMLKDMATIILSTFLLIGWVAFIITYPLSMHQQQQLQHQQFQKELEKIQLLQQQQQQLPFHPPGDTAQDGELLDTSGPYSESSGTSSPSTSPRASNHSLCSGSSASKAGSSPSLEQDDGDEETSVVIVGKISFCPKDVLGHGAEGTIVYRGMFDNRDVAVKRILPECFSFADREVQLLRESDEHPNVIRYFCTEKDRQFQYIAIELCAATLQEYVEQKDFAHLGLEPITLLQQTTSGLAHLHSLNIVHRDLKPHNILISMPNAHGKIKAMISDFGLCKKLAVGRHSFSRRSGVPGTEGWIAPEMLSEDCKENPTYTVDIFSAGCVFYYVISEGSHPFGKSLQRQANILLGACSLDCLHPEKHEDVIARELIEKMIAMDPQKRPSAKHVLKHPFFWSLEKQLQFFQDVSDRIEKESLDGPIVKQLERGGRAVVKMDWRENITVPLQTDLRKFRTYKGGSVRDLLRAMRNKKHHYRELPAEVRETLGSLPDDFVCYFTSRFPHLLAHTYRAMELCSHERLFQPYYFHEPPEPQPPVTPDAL

[2] = molecular target: T1, Serine/threonine-protein kinase/endoribonuclease IRE1; test: Inhibition of IRE1alpha RNase activity (Q470 to L977 residues) (unknown origin) expressed in Sf9 cells using mini-XBP-1 stem-loop RNA as substrate measured every 2 mins interval for 50 mins by FRET assay
Target sequence in this assay (O75460 whole entry, the tested form may be a part): as above

[3] = molecular target: T1, Serine/threonine-protein kinase/endoribonuclease IRE1; test: Inhibition of IRE1alpha RNase activity (unknown origin) using XBP1 as substrate preincubated for 1 hr followed by thapsigargin stimulation for 5 hrs by One-Glo luciferase reagent based luminescence assay
Target sequence in this assay (O75460 whole entry, the tested form may be a part): as above

[4] = Permeability across apical to basolateral side in MDCK cells; assay type: ADME, cell-based, Canis lupus familiaris; conditions: dog, read-out: permeability
[5] = Kinetic solubility of compound at pH 7.4; assay type: physicochemical; conditions: buffer, read-out: Kinetic_solubility
[6] = Half-life in CD-1 mouse at 10 mg/kg, po or 1 mg/kg, iv measured upto 24 hrs by LC-MS/MS analysis; assay type: ADME, organism-based; conditions: in vivo
[7] = Plasma protein binding in mouse incubated for 4 hrs by LC-MS/MS based rapid equilibrium dialysis method; assay type: ADME, cell-free; conditions: read-out: PPB (converted)
[8] = AUC in Sprague-Dawley rat at 500 mg/kg, po administered twice daily for 7 days; assay type: ADME, organism-based; conditions: in vivo, time 7 day
[9] = Toxicity in Sprague-Dawley rat assessed as tolerability upto 500 mg/kg, po administered twice daily for 7 days; assay type: organism-based; conditions: in vivo, 168 h, time 7 day
[10] = Selectivity ratio of inhibition of HIPK4 (unknown origin) to inhibition of IRE1alpha (unknown origin)
[11] = Apparent permeability across apical to basolateral side in MDCK cells at 10 uM incubated for 3 hrs by LC-MS/MS method; assay type: ADME, cell-based, Canis lupus familiaris; conditions: dog
[12] = Cmax in Sprague-Dawley rat at 500 mg/kg, po administered twice daily for 7 days; assay type: ADME, organism-based; conditions: in vivo, time 7 day
[13] = AUC in Sprague-Dawley rat at >= 150 mg/kg, po administered twice daily for 7 days; assay type: ADME, organism-based; conditions: in vivo, time 7 day
[14] = Toxicity in Sprague-Dawley rat assessed as hepatocellular hypertrophy at >= 150 mg/kg, po administered twice daily for 7 days; assay type: organism-based; conditions: in vivo, 168 h, time 7 day
[15] = Toxicity in Sprague-Dawley rat assessed as decrease in thymic lymphoid depletion at 500 mg/kg, po administered twice daily for 7 days; assay type: organism-based; conditions: in vivo, 168 h, time 7 day
Mus musculus [16] = test: In vivo inhibition of IRE1alpha in SCID mouse xenografted with human KMS-11 cells assessed as suppression of XBP1 level in tumor at 250 mg/kg, po BID measured after 16 to 24 hrs; assay type: functional, organism-based; conditions: time 16-24 hrs
[17] = Bioavailability in CD-1 mouse at 10 mg/kg, po or 1 mg/kg, iv measured upto 24 hrs by LC-MS/MS analysis; assay type: ADME, organism-based; conditions: in vivo
[18] = molecular target: T1, Serine/threonine-protein kinase/endoribonuclease IRE1; test: Inhibition of IRE1alpha in human KMS-11 cells assessed as reduction in XBP1 splicing preincubated for 24 hrs followed by thapsigargin addition and measured after 30 mins under FCS medium by luminescence assay; assay type: cell-based
Mus musculus [19] = test: In vivo inhibition of IRE1alpha in SCID mouse xenografted with human KMS-11 cells assessed as suppression of XBP1 level in tumor at 250 mg/kg, po BID measured upto 12 hrs; assay type: functional, organism-based
[20] = molecular target: T1, Serine/threonine-protein kinase/endoribonuclease IRE1; test: Inhibition of IRE1alpha in human KMS-11 cells assessed as reduction in XBP1 splicing preincubated for 24 hrs followed by thapsigargin addition and measured after 30 mins by luminescence assay; assay type: cell-based
[21] = molecular target: T1, Serine/threonine-protein kinase/endoribonuclease IRE1; test: Inhibition of IRE1alpha RNase activity (unknown origin) using XBP1 as substrate preincubated for 1 hr followed by thapsigargin stimulation for 5 hrs under FCS medium by One-Glo luciferase reagent based luminescence assay
Target sequence in this assay (O75460 whole entry, the tested form may be a part): as above

[22] = Toxicity in Sprague-Dawley rat assessed as decrease in thymus weight at 500 mg/kg, po administered twice daily for 7 days; assay type: organism-based; conditions: in vivo, 168 h, time 7 day
[23] = Toxicity in Sprague-Dawley rat assessed as increase in hepatic weight at >= 150 mg/kg, po administered twice daily for 7 days; assay type: organism-based; conditions: in vivo, 168 h, time 7 day
[24] = Volume of distribution at steady state in CD-1 mouse at 10 mg/kg, po or 1 mg/kg, iv measured upto 24 hrs by LC-MS/MS analysis; assay type: ADME, organism-based; conditions: in vivo
[25] = Cmax in Sprague-Dawley rat at >= 150 mg/kg, po administered twice daily for 7 days; assay type: ADME, organism-based; conditions: in vivo, time 7 day
[26] = Toxicity in Sprague-Dawley rat assessed as increase in hepatic enzyme level at 500 mg/kg, po administered twice daily for 7 days; assay type: organism-based; conditions: in vivo, 168 h, time 7 day

O=S(=O)(Cc1ccccc1)Nc1c(F)cc(Oc2ncccc2-c2ccnc(N[C@@H]3CNC[C@H](F)C3)n2)c(F)c1F
IC50 [1]: 2 nM | IC50 [2]: 23 nM | IC50 [3]: 2700 nM

Cc1cc(NS(=O)(=O)c2ccccc2Cl)c2ccccc2c1Oc1ncccc1-c1ccnc(N[C@H]2CC[C@H](N)CC2)n1
IC50 [1]: 0.85 nM

Cc1ccc2c(NS(=O)(=O)Cc3ccccc3)cccc2c1Oc1ncccc1-c1ccnc(N[C@H]2CCCNC2)n1
IC50 [1]: 0.35 nM | IC50 [2]: 17 nM | IC50 [3]: 18 nM

Cc1ccc2c(NS(=O)(=O)c3ccccc3Cl)cccc2c1Oc1ncccc1-c1ccnc(N[C@H]2CCCNC2)n1
IC50 [1]: 0.48 nM | IC50 [2]: 9.2 nM | IC50 [3]: 40 nM | Papp A→B [4]: 1 ×10⁻⁶ cm/s

O=S(=O)(Cc1ccccc1)Nc1c(F)cc(Oc2ncccc2-c2ccnc(N[C@@H]3CNC[C@@H](F)C3)n2)c(F)c1F
solubility kinetic [5]: 65 µM (≈ 38.3 µg/mL) | half-life [6]: 33 min | fraction unbound at 4 h [7]: 0.029 | AUC at 168 h [8]: 909 µg·h/mL | IC50 [1]: 0.27 nM | Activity [9]: Non-Toxic | Selectivity ratio [10]: 83 | IC50 [2]: 4.3 nM | IC50 [3]: 32 nM | Papp A→B at 3 h, 10 µM [11]: 8.7 ×10⁻⁶ cm/s | Cmax [12]: 104 µg/mL | AUC at 168 h [13]: 170 µg·h/mL | Activity [14]: Toxic | Activity [15]: Toxic | inhibition (Mus musculus [16]): inactive | bioavailability [17]: 149% | IC50 [18]: 8 nM | IC90 ([18]; time 24.5 hrs): 79 nM | inhibition (Mus musculus [19]): Active | IC50 [20]: 64 nM | IC90 ([20]; time 24.5 hrs): 650 nM | IC50 [21]: 4 nM | Activity [22]: Toxic | Activity [23]: Toxic | Vdss [24]: 1.05 L/kg | Cmax [25]: 28.9 µg/mL | Activity [26]: Toxic

Cc1ccc2c(NS(=O)(=O)c3ccccc3Cl)cccc2c1Oc1ncccc1-c1ccnc(N)n1
IC50 [1]: > 1000 nM | IC50 [2]: > 10000 nM | IC50 [3]: 32000 nM

Cc1ccc2c(NS(=O)(=O)CCC(F)(F)F)c(F)ccc2c1Oc1ncccc1-c1ccnc(N[C@H]2CCCNC2)n1
IC50 [1]: 0.39 nM | IC50 [2]: 2.1 nM | IC50 [3]: 35 nM

Cc1ccc2c(NS(=O)(=O)CC3CCCCC3)cccc2c1Oc1ncccc1-c1ccnc(N[C@H]2CCCNC2)n1
IC50 [1]: 2.1 nM | IC50 [2]: 24 nM | IC50 [3]: 1300 nM

Cc1ccc2c(NS(=O)(=O)C3CCCCC3)cccc2c1Oc1ncccc1-c1ccnc(N[C@H]2CCCNC2)n1
IC50 [1]: 2.2 nM | IC50 [2]: 17 nM | IC50 [3]: 200 nM

Cc1cc(NS(=O)(=O)Cc2ccccc2)c(F)cc1Oc1ncccc1-c1ccnc(N[C@H]2CCCNC2)n1
IC50 [1]: 2.1 nM | IC50 [2]: 14 nM | IC50 [3]: 310 nM

CC(C)(C)c1nc(-c2ccc(NC(=O)Nc3cccc(C(F)(F)F)c3)c3ccccc23)c2c(N)nccn12
IC50 [1]: 36 nM | IC50 [2]: 200 nM | IC50 [3]: 180 nM

Cc1ccc2c(NS(=O)(=O)c3ccccc3Cl)cccc2c1Oc1ncccc1-c1ccnc(N[C@@H]2CCCNC2)n1
IC50 [1]: 46 nM | IC50 [2]: 420 nM | IC50 [3]: 2300 nM

Cc1ccc2c(NS(=O)(=O)CCC(F)(F)F)cccc2c1Oc1ncccc1-c1ccnc(N[C@H]2CCCNC2)n1
IC50 [1]: 1.1 nM | IC50 [2]: 8.7 nM | IC50 [3]: 84 nM

Cc1ccc2c(Oc3ncccc3-c3ccnc(N[C@H]4CCCNC4)n3)c(C)ccc2c1NS(=O)(=O)CCC(F)(F)F
IC50 [1]: 0.66 nM | IC50 [2]: 3.3 nM | IC50 [3]: 42 nM

Cc1c(Oc2ncccc2-c2ccnc(N[C@H]3CCCNC3)n2)ccc(NS(=O)(=O)Cc2ccccc2)c1F
IC50 [1]: 1.8 nM | IC50 [2]: 24 nM | IC50 [3]: 330 nM | Papp A→B at 3 h, 10 µM [11]: 2 ×10⁻⁶ cm/s

O=S(=O)(Cc1ccccc1)Nc1c(F)cc(Oc2ncccc2-c2ccnc(N[C@@H]3CNC[C@@H](CF)C3)n2)c(F)c1F
IC50 [1]: 0.78 nM | IC50 [2]: 15 nM | IC50 [3]: 540 nM
